Reference: patent publication US9789082B2, “Somatostatin receptor subtype 4 (SSTR4) agonists” (Centrexion Therapeutics Corporation, priority 2013, dated 2017)

The compounds below were run against human Somatostatin 4 receptor (SSTR4) (Homo sapiens (Human), UniProt P31391) (assay: cAMP assay with human somatostatin 4 receptor (hSSTR4 expressing H4 cells)). Settings: cAMP assay, read-out: SSTR4 agonism EC50.
Format: cell-based
Procedure: Camp Assay Method Description for cAMP Assay with Human Somatostatin 4 Receptor
The activation of the SSTR4 receptor (Gi coupled) causes an inhibition of intracellular cAMP after stimulation with Forskolin, which can be quantifiable by use of a suitable assay Kit and an adequate plate reader. This technique is used to characterize pharmacological effects of the SSTR4 receptor agonists by use of hSSTR4 expressing H4 cells.
Compounds are dissolved and diluted in DMSO. The final test solution contains 1% DMSO. […] Cells are centrifuged and suspended in assay buffer (incl. 1:100 diluted Alexa antibody).
For the assay 5 μl of a cell suspension (approximately 5000 cells/well)—incl. Alexa antibody (diluted 1:100) are added into a 384 well MTP microtitre plate excepting one row or column (depending on the plate layout), which is reserved for the standard curve. Then 2 μl of compound sample is added as concentration response curve (e.g. 1e-5 M to 6e-10 M), usually in triplicates. Each assay contains incubations with vehicle controls instead of compound as controls for non-inhibited cAMP generation (100% CTL; ‘high values’) and incubations with 1 μM Somatosatin as controls for full inhibition and background (0% CTL; […]). […] Then the plates are shaken briefly and incubated for 60 min at room temperature. After 60 min 10 μl of the detection mix is added into all wells followed by an additional incubation period of 1 h. The plates are read in a suitable plate reader.
From this ratio, cAMP concentrations are calculated from standard curve and the EC50 is estimated by least square curve fit program.
The EC50 values were obtained with the aid of the above described cAMP ASSAY.

Sequence of human Somatostatin 4 receptor (SSTR4) (P31391 whole entry): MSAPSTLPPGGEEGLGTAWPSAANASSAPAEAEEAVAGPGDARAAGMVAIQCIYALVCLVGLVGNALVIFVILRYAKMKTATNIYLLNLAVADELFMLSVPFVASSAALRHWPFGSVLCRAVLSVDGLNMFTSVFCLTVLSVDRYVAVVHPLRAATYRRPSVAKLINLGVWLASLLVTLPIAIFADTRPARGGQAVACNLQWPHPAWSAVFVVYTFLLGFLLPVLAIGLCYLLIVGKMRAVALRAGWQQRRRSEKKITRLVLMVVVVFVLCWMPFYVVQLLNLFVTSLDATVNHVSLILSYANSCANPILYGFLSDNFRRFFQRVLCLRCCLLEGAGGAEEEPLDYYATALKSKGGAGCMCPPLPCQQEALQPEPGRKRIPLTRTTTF

Compared with `Cc1ccc(C(C)(C)NC(=O)[C@H]2[C@@H]3CNC[C@@H]32)c(C)n1` [Example 172], `Cc1cc(C)c(C(C)(C)NC(=O)[C@H]2[C@@H]3CNC[C@@H]32)cn1` [Example 177] is 57-fold lower in EC50: 520 nM for the first, 9.1 nM for the second. The second is the more potent here.

First: CC(C)(NC(=O)[C@H]1[C@@H]2CNC[C@@H]21)c1ncc2c(OC(F)(F)F)cccn12 [Example 152]
Second: CC(C)(NC(=O)[C@H]1[C@@H]2CNC[C@@H]21)c1ncc2c(C(F)(F)F)cccn12 [Example 124]
The EC50 of the first is 1.7-fold higher: 26.1 nM for the first, 15.4 nM for the second.

Compared with `Cc1cccn2c(C3(NC(=O)[C@H]4[C@@H]5CNC[C@@H]54)CCOCC3)ncc12` [Example 182], `Cc1cccn2c([C@@H](C)NC(=O)[C@H]3[C@@H]4CNC[C@@H]43)ncc12` [Example 160] is 1.6-fold lower in EC50: 68.5 nM for the first, 42.4 nM for the second.

Compared with `COc1ccn2c(C(C)(C)NC(=O)[C@H]3[C@@H]4CNC[C@@H]43)nc(C)c2c1` [Example 155], `CC(C)(NC(=O)[C@H]1[C@@H]2CNC[C@@H]21)c1nc(Br)c2ccccn12` [Example 123] is 63-fold lower in EC50: 94.7 nM for the first, 1.5 nM for the second.

Going from `CC(C)(COc1ccnc2ccccc12)NC(=O)[C@H]1[C@@H]2CNC[C@@H]21` [Example 54] to `CC(C)(COc1cncc2ccccc12)NC(=O)[C@H]1[C@@H]2CNC[C@@H]21` [Example 55], the EC50 falls from 66.6 nM to 30.9 nM (2.2-fold).

Compared with `CC(C)(NC(=O)[C@H]1[C@@H]2CNC[C@@H]21)C1CCOc2ccccc21` (stereo partly shown) [Example 178], `CC(C)(NC(=O)[C@H]1[C@@H]2CNC[C@@H]21)C1COc2ccccc21` (single isomer, unassigned) [Example 175] is 45-fold higher in EC50: 22.4 nM for the first, 1000 nM for the second. The first is the more potent here.

Going from `CC(C)(NC(=O)[C@H]1[C@@H]2CNC[C@@H]21)c1ncc2ccncn12` [Example 69] to `CC(C)(NC(=O)[C@H]1[C@@H]2CNC[C@@H]21)c1ncc2cnccn12` [Example 131], the EC50 falls from 749 nM to 484 nM (1.5-fold). The second is the more potent here.

`Cc1cncnc1OCC(C)(C)NC(=O)[C@H]1[C@@H]2CNC[C@@H]21` [Example 66] and `Cc1nccnc1OCC(C)(C)NC(=O)[C@H]1[C@@H]2CNC[C@@H]21` [Example 37] are within 1.5-fold of each other in EC50: 142 nM for the first, 162 nM for the second.

First: CC(C)(NC(=O)[C@H]1[C@@H]2CNC[C@@H]21)c1ncc2cc(C(F)(F)F)ccn12 [Example 122]
Second: CC(C)(NC(=O)[C@H]1[C@@H]2CNC[C@@H]21)c1ncc2ccc(F)cn12 [Example 136]
The EC50 of the first is 210-fold higher: 1340 nM for the first, 6.4 nM for the second.

Going from `Cc1csc(C(C)(C)NC(=O)[C@H]2[C@@H]3CNC[C@@H]32)n1` [Example 27] to `CC(C)(NC(=O)[C@H]1[C@@H]2CNC[C@@H]21)c1c(Cl)nc2sccn12` [Example 81], the EC50 falls from 285 nM to 143 nM (2-fold). The second is the more potent here.

Going from `CC(C)(NC(=O)[C@H]1[C@@H]2CNC[C@@H]21)c1ccn2ccnc2c1` [Example 85] to `CC(C)(NC(=O)[C@H]1[C@@H]2CNC[C@@H]21)c1ccc2nccn2c1` [Example 86], the EC50 falls from 144 nM to 93.9 nM (1.5-fold).

First: Cn1nc(C(C)(C)NC(=O)[C@H]2[C@@H]3CNC[C@@H]32)c2cc(F)ccc21 [Example 73]
Second: Cn1nc(C(C)(C)NC(=O)[C@H]2[C@@H]3CNC[C@@H]32)c2ncccc21 [Example 35]
The EC50 of the first is 32-fold lower: 11.9 nM for the first, 376 nM for the second. The first is the more potent here.

First: CC(C)(NC(=O)[C@H]1[C@@H]2CNC[C@@H]21)c1ncc2n1CCCC2 [Example 181]
Second: Cn1nc(C(C)(C)NC(=O)[C@H]2[C@@H]3CNC[C@@H]32)c2c1CCCC2 [Example 176]
The EC50 of the first is 34-fold higher: 41.3 nM for the first, 1.2 nM for the second.

Going from `Cc1cccc2c(C(C)NC(=O)[C@H]3[C@@H]4CNC[C@@H]43)nn(C)c12` (stereo partly shown) [Example 117] to `CC(NC(=O)[C@H]1[C@@H]2CNC[C@@H]21)c1nn(C)c2ccccc12` (single isomer, unassigned) [Example 112], the EC50 rises from 6.1 nM to 119 nM (20-fold).

Compared with `CC(C)(COc1ccncc1C(F)(F)F)NC(=O)[C@H]1[C@@H]2CNC[C@@H]21` [Example 36], `CC(C)(COc1ccccc1F)NC(=O)[C@H]1[C@@H]2CNC[C@@H]21` [Example 41] is 8.9-fold higher in EC50: 21.8 nM for the first, 194 nM for the second. The first is the more potent here.

Going from `Cc1cc(I)ccc1OCC1(NC(=O)[C@H]2[C@@H]3CNC[C@@H]32)CC1` [Example 1] to `Cc1cc(Br)ccc1OCC(C)(C)NC(=O)[C@H]1[C@@H]2CNC[C@@H]21` [Example 14], the EC50 falls from 238 nM to 7.2 nM (33-fold). The second is the more potent here.

Going from `CC(C)(NC(=O)[C@H]1[C@@H]2CNC[C@@H]21)c1cnc2cccnn12` [Example 46] to `CC(C)(NC(=O)[C@H]1[C@@H]2CNC[C@@H]21)c1cn2ccccc2n1` [Example 84], the EC50 rises from 241 nM to 840 nM (3.5-fold). The first is the more potent here.

First: Cc1nc(C(C)NC(=O)[C@H]2[C@@H]3CNC[C@@H]32)c2cccc(C)c2n1 (stereo partly shown) [Example 162]
Second: Cc1nc(C(C)NC(=O)[C@H]2[C@@H]3CNC[C@@H]32)c2ccccc2n1 (single isomer, unassigned) [Example 164]
The EC50 of the first is 52-fold lower: 128 nM for the first, 6660 nM for the second.

First: O=C(NC1(c2ccccc2)CCCCC1)[C@H]1[C@@H]2CNC[C@@H]21 [Example 9]
Second: CC(C)(NC(=O)[C@H]1[C@@H]2CNC[C@@H]21)c1ccccc1 [Example 3]
The EC50 of the first is 3-fold higher: 536 nM for the first, 179 nM for the second. The second is the more potent here.

`CC(C)(NC(=O)[C@H]1[C@@H]2CNC[C@@H]21)c1ncc2cccc(F)n12` [Example 135] and `CC(C)(NC(=O)[C@H]1[C@@H]2CNC[C@@H]21)c1ncnc2c(F)cccc12` [Example 154] are the same in EC50: 7.6 nM for the first, 7.6 nM for the second.

Compared with `CC(C)(Cc1cccc2ccccc12)NC(=O)[C@H]1[C@@H]2CNC[C@@H]21` [Example 5], `Cc1ccccc1CC(C)(C)NC(=O)[C@H]1[C@@H]2CNC[C@@H]21` [Example 6] is 2.2-fold higher in EC50: 26.6 nM for the first, 59.6 nM for the second. The first is the more potent here.

`CC(C)(NC(=O)[C@H]1[C@@H]2CNC[C@@H]21)c1nc(C2=CCOCC2)c2ccccn12` [Example 125] and `CC(C)(NC(=O)[C@H]1[C@@H]2CNC[C@@H]21)c1nc(C#N)c2ccccn12` [Example 132] are within 1.5-fold of each other in EC50: 97.6 nM for the first, 72.3 nM for the second.

`CC(C)(NC(=O)[C@H]1[C@@H]2CNC[C@@H]21)c1nn(CC2CC2)c2ccccc12` [Example 97] and `CC(C)(NC(=O)[C@H]1[C@@H]2CNC[C@@H]21)c1nn(CC(F)(F)F)c2ccccc12` [Example 96] are within 1.5-fold of each other in EC50: 12.4 nM for the first, 9.2 nM for the second.

Compared with `CC(C)(NC(=O)[C@H]1[C@@H]2CNC[C@@H]21)C1CCOc2ccccc21` (single isomer, unassigned) [Example 179], `CC(C)(NC(=O)[C@H]1[C@@H]2CNC[C@@H]21)C1COc2ccccc21` (stereo partly shown) [Example 173] is 23-fold higher in EC50: 10.3 nM for the first, 237 nM for the second.

Going from `CC(C)(NC(=O)[C@H]1[C@@H]2CNC[C@@H]21)C1CCOc2ccccc21` (single isomer, unassigned) [Example 180] to `CC(C)(NC(=O)[C@H]1[C@@H]2CNC[C@@H]21)c1nn(C2CCOCC2)c2ccccc12` [Example 99], the EC50 falls from 400 nM to 102 nM (3.9-fold). The second is the more potent here.

`CC(C)(NC(=O)[C@H]1[C@@H]2CNC[C@@H]21)c1ccc2ccccc2n1` [Example 34] and `CC(C)(NC(=O)[C@H]1[C@@H]2CNC[C@@H]21)c1cc2ccccc2cn1` [Example 26] are within 1.5-fold of each other in EC50: 41.1 nM for the first, 46.5 nM for the second.

Going from `Cc1nc(C(C)NC(=O)[C@H]2[C@@H]3CNC[C@@H]32)c2ccccc2n1` (single isomer, unassigned) [Example 163] to `Cc1nc(C(C)NC(=O)[C@H]2[C@@H]3CNC[C@@H]32)c2cccc(C)c2n1` (single isomer, unassigned) [Example 166], the EC50 rises from 338 nM to 1400 nM (4.1-fold).

First: CC(C)n1nc(C(C)(C)NC(=O)[C@H]2[C@@H]3CNC[C@@H]32)c2ccccc21 [Example 98]
Second: CC(C)(NC(=O)[C@H]1[C@@H]2CNC[C@@H]21)c1nn(Cc2ccccc2)c2ccccc12 [Example 50]
The EC50 of the first is 2.4-fold higher: 19.9 nM for the first, 8.4 nM for the second.

First: CC(C)(NC(=O)[C@H]1[C@@H]2CNC[C@@H]21)C1CCCCC1 [Example 7]
Second: Cc1cccn2c(C(C)(NC(=O)[C@H]3[C@@H]4CNC[C@@H]43)C3CC3)ncc12 (stereo partly shown) [Example 183]
The EC50 of the first is 44-fold higher: 435 nM for the first, 9.9 nM for the second. The second is the more potent here.

Going from `CC(C)(COc1cccn2ccnc12)NC(=O)[C@H]1[C@@H]2CNC[C@@H]21` [Example 61] to `Cc1cccnc1CCC(C)(C)NC(=O)[C@H]1[C@@H]2CNC[C@@H]21` [Example 30], the EC50 falls from 1090 nM to 202 nM (5.4-fold). The second is the more potent here.

First: CC(C)(CCc1ccccc1)NC(=O)[C@H]1[C@@H]2CNC[C@@H]21 [Example 4]
Second: Cc1cccn2c(C(C)(C)NC(=O)[C@H]3[C@@H]4CNC[C@@H]43)ccc12 [Example 184]
The EC50 of the first is 790-fold higher: 315 nM for the first, 0.4 nM for the second. The second is the more potent here.

First: Cc1nc2ccccn2c1C(C)(C)NC(=O)[C@H]1[C@@H]2CNC[C@@H]21 [Example 147]
Second: Cc1cc2c(C)nccc2c(C(C)(C)NC(=O)[C@H]2[C@@H]3CNC[C@@H]32)n1 [Example 144]
The EC50 of the first is 3.6-fold lower: 13.3 nM for the first, 47.7 nM for the second. The first is the more potent here.

Going from `Cc1ccccc1OCC(C)(C)NC(=O)[C@H]1[C@@H]2CN(C(C)C)C[C@@H]21` [Example 72] to `Cc1nc(C(C)(C)NC(=O)[C@H]2[C@@H]3CNC[C@@H]32)c2cccc(F)c2n1` [Example 157], the EC50 falls from 362 nM to 36.9 nM (9.8-fold). The second is the more potent here.

Work on `Cc1nc(C(C)NC(=O)[C@H]2[C@@H]3CNC[C@@H]32)c2cccc(C)c2n1` (single isomer, unassigned) [Example 165] yielded an EC50 of 88.8 nM.
